The text below walks through data of DBAASP.

A word on the MIC: it is the smallest concentration in the dilution series that meets the test's criterion for growth inhibition. Lower therefore signals inhibition by little substance.

Converted amounts (≈) assume the structure as drawn. “And” between values parts separate entries of the source, which are not always exact repeats. Equal entries are not always repeated. Where only a bound is given, the exact number is not on record here.

Test systems include Staphylococcus aureus; Enterococcus faecium; Enterococcus gallinarum; Acinetobacter baumannii; Escherichia coli O157; Pseudomonas aeruginosa; Cutibacterium acnes PJI2; Escherichia coli HB101; Cutibacterium acnes C2.
Holding throughout (test): ≥ marks a high value that may be exact or a test limit, other limits are often not marked, values filed in µg/mL are converted to µM
Assay [1] concerns Enterococcus casseliflavus.
Assay [2] relates to Salmonella typhimurium KCTC 2370.
The test system of assay [3] is Saccharomyces cerevisiae ATCC 44774.
Assay [4] relates to Bacillus subtilis KCTC 3038.
The test system of assay [5] is Enterococcus faecalis ATCC 29212.
Assay [6] concerns Salmonella typhimurium C587.
Assay [7] relates to Klebsiella pneumoniae 1549216.
Assay [8] deals with Mycobacterium tuberculosis H37Rv.
For assay [9], the system named is Klebsiella pneumoniae ATCC 13883.
The subject of assay [10] is Burkholderia cenocepacia 4813.
For assay [11], the system named is Pseudomonas aeruginosa PA14.
For assay [12], the system named is Salmonella enterica subsp. enterica serovar Typhimurium ATCC 14028s.
In assay [13] the test system is Enterobacter cloacae 218R.
In assay [14] the test system is Acinetobacter baumannii ATCC 17987.
The test system of assay [15] is Staphylococcus aureus ATCC 25923.
Assay [16] deals with Klebsiella pneumoniae KPLN649.
The test system of assay [17] is Enterococcus faecalis ATCC 19433.
Assay [18] deals with Pseudomonas aeruginosa PAO1.

Turning to `CC[C@H](C)[C@H](NC(=O)[C@H](CCCCN)NC(=O)[C@H](CCC(N)=O)NC(=O)[C@H](CCCCN)NC(=O)[C@@H](NC(=O)[C@@H](NC(=O)[C@H](CCC(N)=O)NC(=O)[C@@H](NC(=O)[C@@H](NC(=O)[C@@H]1CCCN1C(=O)[C@H](CCCN=C(N)N)NC(=O)[C@@H](NC(=O)[C@@H](NC(=O)[C@@H](N)CCCN=C(N)N)[C@@H](C)CC)[C@@H](C)CC)[C@@H](C)CC)[C@@H](C)CC)[C@@H](C)CC)[C@@H](C)CC)C(=O)N[C@@H](CCCN=C(N)N)C(=O)O` [RIIRPIIQIIKQKIR], the MIC in assay [1] is 1.06 µM (≈ 2 µg/mL); against Staphylococcus aureus it was 1.5 µM (≈ 2.83 µg/mL); against Enterococcus faecium it was 1.06 µM (≈ 2 µg/mL); in the assay on Enterococcus gallinarum, 1.06 µM (≈ 2 µg/mL); in assay [2], 2.12 µM (≈ 4 µg/mL); in [3], 2.12 µM (≈ 4 µg/mL). Moreover, the MIC in assay [4] and in assay [5] was 1.06 µM (≈ 2 µg/mL) throughout.

Take `CC[C@H](C)[C@H](NC(=O)[C@H](CCCN=C(N)N)NC(=O)[C@@H](NC(=O)[C@H](C)NC(=O)[C@@H](NC(=O)[C@@H](NC(=O)[C@H](CC(C)C)NC(=O)[C@H](CCCN=C(N)N)NC(=O)[C@@H](N)C(C)C)[C@@H](C)CC)C(C)C)C(C)C)C(=O)N[C@@H](Cc1c[nH]c2ccccc12)C(=O)N[C@@H](CCCN=C(N)N)C(=O)N[C@@H](CCCN=C(N)N)C(N)=O` [VRLIVAVRIWRR]: the MIC is at least 41.6 µM in [6]; at least 41.6 µM in assay [7]; at least 83.3 µM against Acinetobacter baumannii; 10.4 µM (≈ 16 µg/mL) in assay [8]; 5.21 µM (≈ 7.99 µg/mL) in assay [9]; 20.8 µM (≈ 32 µg/mL) against Escherichia coli O157. The MIC in assay [10] is at least 167 µM; in assay [11] it was ≥ 41.6 µM and 20.8 µM; in assay [12] it was at least 41.6 µM; in assay [13], at least 41.6 µM; in assay [14] it was at least 83.3 µM; in [15] it was 167 µM (≈ 256 µg/mL). Moreover, the MIC in the assay on Pseudomonas aeruginosa was 12.4 µM (≈ 19 µg/mL); in assay [16] it was 20.8 µM (≈ 32 µg/mL); in [17], at least 167 µM; in the assay on Cutibacterium acnes PJI2, at least 41.6 µM; against Escherichia coli HB101 it was 20.8 µM (≈ 32 µg/mL); against Cutibacterium acnes C2, at least 41.6 µM. This compound gave an MIC in assay [18] of 41.6 µM (≈ 64 µg/mL).
